Assay results as given in US20200062719A1, “Application of Imidazopyridine Derivatives in Regenerative Medicine” (University of Heidelberg, priority 2018, published 2020).

Legend:
[1] = Metabolic analysis of O4I2 incubated with NCCIT cells (HPLC, LC/MS); format: in vitro ADME, human; conditions: 24 hours, O4I2 50 μM
Description: (§1) The inventors adopted Hantzsch thiazole synthesis (FIG. 20A) and produced a series of new O4I2-ester derivatives (FIG. 20B). Their activities were measured in three luciferase report cell lines, namely HEK-OCT4, driven by the activation of OCT4-promoter, and NCCIT-OCT4 and NCCIT-NANOG, whose intensities are controlled by endogenous OCT4 and NANOG respectively. […] Carboxylesterase 1 (CES1) is an enzyme majorly contributing to ester-to-acid conversion.
NCCIT cells were treated with O4I2 (50 μM) in RPMI 1640 medium containing 2% BSA/FBS. Medium and cells were collected. Cell pellet was solved in 0.1% Triton-x. Protein precipitated by adding MeOH (pH=2) in lysate supernatant on ice for 2 h. Metabolites were extracted from the combined supernatant with ethyl acetate. After removal of organic solvent, residue was dissolved in acetonitrile, frozen immediately in liquid N2 and stored in −80° C. until further analysis.
Samples obtained after purification were diluted to contain 20% MeOH. 100 μL of the sample was transferred to an HPLC vial and placed in the autosampler of an Agilent 1200 series HPLC machine. Sample (20 μL) was injected into the system and metabolites were separated on a C18 column (Kinetex 2.6 μm, C18, 100 Å, dimensions 100×2.1 mm, Phenomenex, Aschaffenburg, Germany). […]

Oct4 [2] = assay: Immunoblotting of OCT4 protein in human primary fibroblasts; format: cell-based
Description: In human primary fibroblasts, O4I4 promoted the expression of pluripotency-associated genes, including OCT4, SOX2, NANOG, LIN28, E-CADHERIN, REX1 and SALL4. […] FACS analysis further confirmed the O4I4-mediated induction of OCT4 and E-CADHERIN.
iPSCs were lysed using urea-lysis buffer (1 mM EDTA, 0.5% Triton X-100, 5 mM NaF, 6 M Urea, 1 mM Na3VO4, 10 μg/mL Pepstatin, 100 μM PMSF and 3 μg/mL Aprotinin in PBS). Enhanced chemiluminescence (ECL) immunoblot analysis was performed. 40 μg of total protein was resolved on 12% SDS-PAGE gels and immunoblotted with antibodies. […] antibody was used as loading control. Primary antibodies were incubated at 1:1000 dilution in TBS (pH 7.5) with 0.1% Tween-20 and 5% BSA/milk with gentle agitation overnight at 4° C. Secondary antibodies (Dianova, Germany) were incubated in TBS (pH 7.5) with 5% Milk and 0.1% Tween-20 at a 1:10,000 dilution for 1 h at room temperature.

C. elegans [3] = assay: C. elegans lifespan assay; format: in vivo; conditions: 0.5 μM
Description: O4I4 (0.5 μM) were continuously added in medium until all the worms die. During the experiment period, every two days or three days, worms were counted either live or die by responding to a gentle touch with a platinum wire.

OCT4-promoter = assay: Luciferase reporter assay in HEK-OCT4 cells; format: cell-based; conditions: HEK-OCT4, NCCIT-OCT4 and NCCIT-NANOG
Description: In an effort to find such chemical structures able to induce pluripotency, a high-throughput screening (HTS) was performed. The screen was based on cellular luciferase reporter assays under the control of the promoter activity of a pluripotency-associated transcription factor (Oct4) in HEK293 cells.
as §1

[4] = Expression of pluripotency genes in unmodified NCCIT cells; format: cell-based, human
Excerpt: Consistently, in unmodified NCCIT cells O4I4 forced the expression of OCT4 (3-fold increase as compared to 0.1% DMSO treatment) and NANOG (30-fold increase) as well as other pluripotency-related genes, like E-CADHERIN, SOX2, REX1 and STAT3, 0414-mediated enrichment of OCT4 and NANOG, as well as SOX2 and E-CADHERIN, was also detected by fluorescence-activated cell sorting. […] It was reported that removal of bFGF led to the loss of pluripotency-marker expression in hPSCs, including OCT4, SOX2, E-CADHERIN and NANOG, which however was rescued in the presence of O4I4 (FIG. 21A), indicating a positive function of O4I4 in maintaining the pluripotency-associated transcriptional circuitry in hPSC.
Quantitative reverse-transcription real-time-PCR was performed using a Light Cycler 96 (Roche, Germany) following the manufacturer's protocol. Briefly, total RNA was isolated from cells using TRIzol (Qiagen, Germany) or NucleoSpin®RNA Plus (Macherey-Nagel, Germany). The same amount of RNA was used to reverse-transcriptional synthesize cDNA by using random primers ProtoScript® First Strand cDNA Synthesis Kit (NEB, Germany). qPCR was performed using the SYBR Green PCR master mix (qPCRBIO SyGreen Mix Lo-Rox, Nippon Genetics, Germany) and the primer pairs indicated below (MWG, Eurofins, Germany). Actin was used as an endogenous control. […]

daf-16 = assay: Daf-16 localization assay in C. elegans TJ356; format: in vivo
Description: In this experiment, transgenic worms TJ356 (Daf-16::GFP) are employed to study our target substance affects the localization of daf-1 6. After 24 h treatment, worms were transferred to a glass slide and paralyzed with 10 mM sodium azide. BZ9000 fluorescence microscope was used to observe the localization of daf-1 6. In each sample, around 50 worms were scored for three localization patterns: cytoplasmic, intermediate and nuclear.

C. elegans [5] = assay: C. elegans survival assay under oxidative stress (juglone); format: in vivo
Description: Eggs were released by lysing gravid adults with bleaching for 10 min. Resuspended eggs in sterile M9 buffer and incubated at 20° C. for 16-18 h. After all the worms were synchronized at the same L1 larval stage, transferred them into the liquid S-media which contents E. coli OP50 (0D600=0.8-1.2). Then, synchronized worms were treated with DMSO, 50 μg/ml epigallocatechin gallate (EGCG) or O4I4 (5 μM, 10 μM, and 20 μM) for further experiments.
After 48 h treatment, around 60 wild-type C. elegans (N2) worms in each sample were transferred into a new liquid S-media which contains 80 μM of superoxide-generating compound juglone (5-hydroxy-1,4-naphthalenedione) for 24 h. If a worm has response via a gentle touch with platinum wire, it is considered as a live worm. Conversely, a dead worm was considered by no response. The function of the survival rate is shown below.

human fibroblasts = assay: Episome-based reprogramming of human fibroblasts, AP+ / iPSC-like colonies; format: cell-based; conditions: 1 μM, lower efficiency
Description: O4I3 was applied in commercially available episome-based reprogramming cocktail containing episomal vectors for overexpression of Oct4, Sox2, Klf4, Lin28 and L-Myc, as well as suppression of p53. In comparison to non-treated fibroblast cultures, 20 times more alkaline phosphatase (AP) positive colonies were detected in the presence of O4I3 at a concentration of 50 nM in two tested human primary fibroblasts (HF1 and HF2) (FIG. 13).
It is known in the art that senescence or other unknown factors can confer donor fibroblasts resistance to reprogramming. Therefore, O4I3 was tested for its ability to enable reprogramming of refractory fibroblasts. Two human fibroblasts were selected. HFF-LTR7-EGFP at passage >40 carrying EGFP driven by a LTR7 promoter, which was activated during reprogramming, and HF5, isolated from a patient sample, both of which were resistant to an episome-based reprogramming approach (FIG. 13).
Epi5® Episomal iPSC Reprogramming Kit (Life technologies) was used to reprogram human fibroblasts according to the manufacturer's protocol. Briefly, 5,000-50,000 cells were seeded in a 24-well plate for 24 h and then transfected with episomal vectors in N2 B27 medium. After 14 days, cells were re-suspended with 0.5 mM EDTA and re-plated in a 6-well plate in Essential®8 medium. Colonies were isolated after 3-4 weeks with the help of alkaline phosphatase (AP) live stain (Life technologies). Medium was refreshed daily.

methylated H3K4 = assay: In vitro H3K4 methylation assay (Epiquik histone demethylase H3K4 specific kit); format: biochemical; conditions: micromolar concentrations
Description: (§2) Epiquik histone demethylase (H3K4 specific) activity/inhibition assay kit (Epigentek, Biocat, Germany) was used to measure the protective effect of O4I3 and zolpidem on the methylation of H3K4. Their inhibitory effects on LSD1, KDM5s, and KDM4 were determined using Epigenase jarid demethylase activity/inhibition assay kit, Epigenase JMJD2 demethylase activity/inhibition assay kit and EpiQuik histone demethylase LSD1 activity/inhibition assay kit (Epigentek, Biocat, Germany). The total nuclear extraction was used according to manufacturer's instructions. For measuring KDM5A, KDM5B, KDM5C, and KDM5D activity, magnetic beads were used to immunoprecipitate the respective enzymes from 10^8 cells according to the manufacturer's instructions (Cell Signaling Technologies).

Nanog = assay: Luciferase reporter assay in NCCIT-Nanog cells; format: cell-based, human; conditions: 10 μM, 48 h
Description: It is known in the art that Nanog is a direct target of Oct4 and can be activated by other Oct4 inducing compounds. […] At higher concentrations of O4I3 (FIGS. 1B and 1C) less activity was observed. Moreover, the activity of zolpidem (N,N-Dimethyl-2-(6-methyl-2-p-tolylimidazo[1,2-a]pyridin-3-yl)acetamid) (100) containing a similar backbone to O4I3 was tested in both reporter cell lines. An approximate 2-fold induction at 10 μM was detected (FIG. 8 and FIG. 9).
Luciferase reporter assay was performed using Beatle Juice Kit (PJK, Germany) according to the manufacturer's instruction. NCCIT-Oct and NCCIT-Nanog reporter cells were plated into a 24-well plate (100,000 cells/well) for 24 h. Cells were treated with compounds as indicated and harvested with luciferase lysis buffer (25 mM Tris phosphate buffer pH=7.8, 4 mM EGTA, 1% Triton X-100, 10% glycerol and 2 mM fresh DTT, filtered through 0.45 μm sterile filter) at 37° C. for 15 min. The protein concentration was determined by Bradford assay (Sigma, Germany). 100 μL reaction mixture containing luciferin and ATP was added to 20 μL cell lysis in a white plate (Gibco, Germany), incubated for 5 min and measured by a luminometer plate-reader. The activity was determined as percent luminous intensity of treated cells over control cells from at least five-independent experiments.

KDM5 = KDM5 demethylase inhibition, whole-cell nuclear extraction; format: biochemical; conditions: micromolar concentrations
Excerpt: (§3) HMT and HDM are two major classes of enzymes, contributing to the regulation of histone methylation. Lysine-specific demethylase 1 (LSD1) and histone lysine demethylase 5 (KDM5, also known as JARID1) majorly catalyze demethylation of H3K4. A few KDM5 chemical inhibitors have been reported to inhibit demethylation of H3K4, leading to an increase of global methylated H3K4 in various cell types. The inventors tested the inhibitory effect of O4I3 on LSD1 and KDM5. KDM4 (also known as JMJD2), the HDM of H3K9 and H3K36, was also included.
as §2

Oct4 [6] = assay: Luciferase reporter assay in NCCIT-Oct4 cells; format: cell-based, human; conditions: 10 μM, 48 h
KDM4 = system: T1, KDM4; assay: KDM4 (JMJD2) demethylase inhibition, nuclear extraction; format: biochemical; conditions: micromolar concentrations
T1 construct: other: whole-cell nuclear extraction; other: micromolar concentrations
Excerpt: as §3, §2

hiPSCs = assay: iPSC single cell expansion, viability by MTT assay; format: cell-based, human; conditions: much higher concentration and lower efficacy than O4I3
Description: Since O4I3 induced sustainable expression of Oct4 and Nanog, the inventors questioned if it supports iPSC self-renewal in single cell expansion. Therefore, the viability of iPSCs, after replating Accutase®-dissociated single iPSCs, was tested in the presence or absence of O4I3. Rocki (Y-27632) was used for the first 24 h to increase iPSCs survival. A nearly 300% higher viability in cells treated with O4I3 (1 nM) was observed. Using 50 nM of O4I3 even 400% increase was observed (FIG. 2A). FACS analysis confirmed homologous expression of iPSCs markers, Tra-1-81 and Oct4, for at least 30 passages (FIG. 2B).
iPSC single cell expansion was performed according to a well-established protocol known in the art (Watanabe et al, Nat Biotechnol, 2007, 25(6), 681-6). Briefly, iPSCs were dissociated with Accutase® as single cell suspension and re-seeded in a Geltrex-coated 96-well plate in the presence of Rock inhibitor for the first 24 h in combination with/without O4I3. Cell viability was performed in MTT assay as disclosed elsewhere (Cheng et al, Mol Oncol. 2016 June; 10(6):806-24).

Structure (SMILES): CCOC(=O)c1csc(Nc2ccc(Cl)cc2)n1 [O4I2]
- metabolic conversion in cells [1]: occurrence of ester-to-acid conversion

Structure (SMILES): Cc1cccc(Nc2nc(C(C)(C)C)cs2)c1C [O4I4]
- OCT4 protein (Oct4 [2]): dose-dependent increase
- lifespan (C. elegans [3]): life extension
- activity in three luciferase reporter cell lines (OCT4-promoter): among the most active compounds
- expression of NANOG, increase as compared to 0.1% DMSO treatment [4]: 30 fold
- expression of OCT4, increase as compared to 0.1% DMSO treatment [4]: 3 fold
- localization of daf-16 (daf-16): nucleic translocation
- survival ratio under oxidative stress (C. elegans [5]): increased survival ratio

Structure (SMILES): Cc1ccc(-c2nc3ccc(C)cn3c2CC(=O)N(C)C)cc1 [zolpidem, N,N-dimethyl-2-(6-methyl-2-p-tolylimidazo[1,2-a]pyridin-3-yl)acetamid, reference compound]
- reprogramming of resistant fibroblasts (human fibroblasts): facilitated the reprogramming of resistant fibroblasts
- protection of H3K4 methylation (methylated H3K4): protected H3K4 methylation
- induction in NCCIT-Nanog reporter cells (Nanog): ~2 fold
- inhibition of KDM5 (KDM5): inhibited
- induction in NCCIT-Oct4 reporter cells (Oct4 [6]): ~2 fold
- inhibition of KDM4 (KDM4): inhibited
- maintenance of iPSCs (hiPSCs): sustained the maintenance of iPSCs
